According to US4933347A, “Diamidines and bis(imidazolines) for the treatment of and prophylaxis against pneumocystis carinii pneumonia” (University of North Carolina at Chapel Hill, priority 1988, dated 1990):

Columns and labels:
Pneumocystis carinii = assay: Treatment of Pneumocystis carinii pneumonia in Sprague-Dawley rats (extent of disease by histologic score); assay type: in vivo, male Sprague-Dawley rats; settings: for Extent of Disease by Histologic Score: number of animals with score 0.5 / Extent of Disease by Histologic Score: number of animals with score 1 / Extent of Disease by Histologic Score: number of animals with score 2 / Extent of Disease by Histologic Score: number of animals with score 3 / Extent of Disease by Histologic Score: number of animals with score 4: 14 days; for Extent of Disease by Histologic Score: number of animals with score 0.5 / Extent of disease by histologic score (combined): number of animals in scoring group 0.5: 0.5 = <10 cysts found per 2 sections; for Extent of Disease by Histologic Score: number of animals with score 1 / Extent of disease by histologic score (combined): number of animals in scoring group 1: 1 = scattered cysts, <5% of lung involved; for Extent of Disease by Histologic Score: number of animals with score 2 / Extent of disease by histologic score (combined): number of animals in scoring group 2: 2 = scattered cysts; for Extent of Disease by Histologic Score: number of animals with score 2: 5-10% lung involved or small foci of infection; for Extent of Disease by Histologic Score: number of animals with score 3 / Extent of disease by histologic score (combined): number of animals in scoring group 3: 3 = scattered cysts; for Extent of Disease by Histologic Score: number of animals with score 3: 10-50% of lung involved with some intense areas of infection; for Extent of Disease by Histologic Score: number of animals with score 4: 4 = >50% of lung involved with many intense areas of focal infection; for Extent of disease by histologic score (combined): number of animals in scoring group 0.5 / Extent of disease by histologic score (combined): number of animals in scoring group 1 / Extent of disease by histologic score (combined): number of animals in scoring group 2 / Extent of disease by histologic score (combined): number of animals in scoring group 3 / Extent of disease by histologic score (combined): number of animals in scoring group 4: Table XII composite; for Extent of disease by histologic score (combined): number of animals in scoring group 2: 5-10% of lung involved; for Extent of disease by histologic score (combined): number of animals in scoring group 3: 10-50% of lung involved; for Extent of disease by histologic score (combined): number of animals in scoring group 4: 4 = >50% of lung involved
[1] = Toxicity of amidines in rats (standard laboratory procedure); assay type: in vivo
Procedure: Compounds having the structure represented by Formula I were synthesized in accordance with the appropriate procedures discussed previously. The reaction schemes shown in Charts I-III specifically identify the methodology used to synthesize the compounds of the respective examples. The compounds which were synthesized are shown in Table IA and the elemental analysis and melting points of the compounds are shown in Table IB. Most of the compounds were tested for toxicity in rats using standard laboratory procedure and the results of that toxicity testing are shown in Table XII. The compounds of Examples 31, 32, and 34 were not synthesized but may be synthesized in the general manner discussed previously.

[2] = 10 mg/kg unless otherwise noted

SMILES	Extent of Disease by Histologic Score: number of animals with score 0.5 (Pneumocystis carinii; 2.5 mg/kg i.v. daily)	Extent of Disease by Histologic Score: number of animals with score 1 (Pneumocystis carinii; 2.5 mg/kg i.v. daily)	Extent of Disease by Histologic Score: number of animals with score 2 (Pneumocystis carinii; 2.5 mg/kg i.v. daily)	Extent of Disease by Histologic Score: number of animals with score 3 (Pneumocystis carinii; 2.5 mg/kg i.v. daily)	Extent of Disease by Histologic Score: number of animals with score 4 (Pneumocystis carinii; 2.5 mg/kg i.v. daily)	Extent of disease by histologic score (combined): number of animals in scoring group 0.5 (Pneumocystis carinii; tested at 2.5 mg/kg)	Extent of disease by histologic score (combined): number of animals in scoring group 1 (Pneumocystis carinii; tested at 2.5 mg/kg)	Extent of disease by histologic score (combined): number of animals in scoring group 2 (Pneumocystis carinii; tested at 2.5 mg/kg)	Extent of disease by histologic score (combined): number of animals in scoring group 3 (Pneumocystis carinii; tested at 2.5 mg/kg)	Extent of disease by histologic score (combined): number of animals in scoring group 4 (Pneumocystis carinii; tested at 2.5 mg/kg)	Toxicity of amidines: Effect ([1]; rat, in vivo, 2.5 mg/kg)	Extent of Disease by Histologic Score: number of animals with score 0.5 (Pneumocystis carinii; 10 mg/kg i.v. daily)	Extent of Disease by Histologic Score: number of animals with score 1 (Pneumocystis carinii; 10 mg/kg i.v. daily)	Extent of Disease by Histologic Score: number of animals with score 2 (Pneumocystis carinii; 10 mg/kg i.v. daily)	Extent of Disease by Histologic Score: number of animals with score 3 (Pneumocystis carinii; 10 mg/kg i.v. daily)	Extent of Disease by Histologic Score: number of animals with score 4 (Pneumocystis carinii; 10 mg/kg i.v. daily)	Extent of disease by histologic score (combined): number of animals in scoring group 0.5 (Pneumocystis carinii; 10 mg/kg)	Extent of disease by histologic score (combined): number of animals in scoring group 1 (Pneumocystis carinii; 10 mg/kg)	Extent of disease by histologic score (combined): number of animals in scoring group 2 (Pneumocystis carinii; 10 mg/kg)	Extent of disease by histologic score (combined): number of animals in scoring group 3 (Pneumocystis carinii; 10 mg/kg)	further results
N=C(N)c1ccc(OCCCCCOc2ccc(C(=N)N)cc2Cl)c(Cl)c1 [Example 25]	0 animals	0 animals	0 animals	4 animals	4 animals	0 animals	0 animals	0 animals	4 animals	4 animals	None										
N=C(N)c1ccc(OCCCCOc2ccc(C(=N)N)cc2Cl)c(Cl)c1 [Example 24]	0 animals	1 animals	2 animals	3 animals	2 animals	0 animals	1 animals	2 animals	3 animals	2 animals	None										
CN1CCN=C1c1ccc(OCCCCOc2ccc(C3=NCCN3C)cc2)cc1 [Example 41]	0 animals	0 animals	2 animals	4 animals	2 animals	0 animals	0 animals	2 animals	4 animals	2 animals	no toxicity										
N=C(N)c1ccc(NCCCCNc2ccc(C(=N)N)cc2)cc1 [Example 8]												3 animals	1 animals	0 animals	0 animals	0 animals	3 animals	1 animals	0 animals	0 animals	Efficacy in treating PCP compared with pentamidine (Pneumocystis carinii; [2]): better than or equal to pentamidine; Extent of disease by histologic score (combined): number of animals in scoring group 4 (Pneumocystis carinii; 10 mg/kg): 0 animals; Deaths by day 7 ([1]; rat, in vivo): 3 deaths
COc1cc(C2=NCCN2)ccc1OCCCCCOc1ccc(C2=NCCN2)cc1OC [Example 43]																					Extent of Disease by Histologic Score: number of animals with score 0.5 (Pneumocystis carinii; 5 mg/kg i.v. daily): 1 animals; Extent of Disease by Histologic Score: number of animals with score 1 (Pneumocystis carinii; 5 mg/kg i.v. daily): 3 animals; Extent of Disease by Histologic Score: number of animals with score 2 (Pneumocystis carinii; 5 mg/kg i.v. daily): 1 animals; Extent of Disease by Histologic Score: number of animals with score 3 (Pneumocystis carinii; 5 mg/kg i.v. daily): 2 animals; Extent of Disease by Histologic Score: number of animals with score 4 (Pneumocystis carinii; 5 mg/kg i.v. daily): 0 animals; Extent of disease by histologic score (combined): number of animals in scoring group 0.5 (Pneumocystis carinii; tested at 5 mg/kg): 1 animals; Extent of disease by histologic score (combined): number of animals in scoring group 1 (Pneumocystis carinii; tested at 5 mg/kg): 3 animals; Extent of disease by histologic score (combined): number of animals in scoring group 2 (Pneumocystis carinii; tested at 5 mg/kg): 1 animals; Extent of disease by histologic score (combined): number of animals in scoring group 3 (Pneumocystis carinii; tested at 5 mg/kg): 2 animals; Extent of disease by histologic score (combined): number of animals in scoring group 4 (Pneumocystis carinii; tested at 5 mg/kg): 0 animals; Efficacy in treating PCP compared with control (Pneumocystis carinii; compound at 5 mg/kg): significantly better than the control; Toxicity of amidines: Effect ([1]; rat, in vivo, 5 mg/kg): no toxicity
N=C(N)c1ccc(NCCCCCNc2ccc(C(=N)N)cc2[N+](=O)[O-])c([N+](=O)[O-])c1 [Example 18]																					Extent of Disease by Histologic Score: number of animals with score 0.5 (Pneumocystis carinii; 5 mg/kg i.v. daily): 1 animals; Extent of Disease by Histologic Score: number of animals with score 1 (Pneumocystis carinii; 5 mg/kg i.v. daily): 3 animals; Extent of Disease by Histologic Score: number of animals with score 2 (Pneumocystis carinii; 5 mg/kg i.v. daily): 0 animals; Extent of Disease by Histologic Score: number of animals with score 3 (Pneumocystis carinii; 5 mg/kg i.v. daily): 2 animals; Extent of Disease by Histologic Score: number of animals with score 4 (Pneumocystis carinii; 5 mg/kg i.v. daily): 1 animals; Extent of disease by histologic score (combined): number of animals in scoring group 0.5 (Pneumocystis carinii; tested at 5 mg/kg): 1 animals; Extent of disease by histologic score (combined): number of animals in scoring group 1 (Pneumocystis carinii; tested at 5 mg/kg): 3 animals; Extent of disease by histologic score (combined): number of animals in scoring group 2 (Pneumocystis carinii; tested at 5 mg/kg): 0 animals; Extent of disease by histologic score (combined): number of animals in scoring group 3 (Pneumocystis carinii; tested at 5 mg/kg): 2 animals; Extent of disease by histologic score (combined): number of animals in scoring group 4 (Pneumocystis carinii; tested at 5 mg/kg): 1 animals; Efficacy in treating PCP compared with control (Pneumocystis carinii; compound at 5 mg/kg): better than the control; Efficacy in treating PCP compared with pentamidine (Pneumocystis carinii; compound at 5 mg/kg): less effective than pentamidine; Toxicity of amidines: Effect ([1]; dose as in value, else not given in Table XIII (10 mg/kg test dose)): Acute toxicity - death at 10 mg/kg
N=C(N)c1ccc(NCCNc2ccc(C(=N)N)cc2N)c(N)c1 [Example 33]												0 animals	0 animals	4 animals	3 animals	1 animals	0 animals	0 animals	4 animals	3 animals	Efficacy in treating PCP compared with control (Pneumocystis carinii; [2]): better than the control; Efficacy in treating PCP compared with pentamidine (Pneumocystis carinii; [2]): worse than pentamidine; Extent of disease by histologic score (combined): number of animals in scoring group 4 (Pneumocystis carinii; 10 mg/kg): 1 animals
N=C(N)c1cccc(OCCCCCCOc2cccc(C(=N)N)c2)c1 [Example 29]												1 animals	4 animals	1 animals	2 animals	0 animals	1 animals	4 animals	1 animals	2 animals	Extent of disease by histologic score (combined): number of animals in scoring group 4 (Pneumocystis carinii; 10 mg/kg): 0 animals
